# Results: patent US20030232013A1, “Therapeutic and diagnostic targeting of cancers cells with tumor homing peptides” (priority 2002, published 2003)
# Counter-ions that a name gives are not always drawn. Numbered stars: 1 amine (or outer) side, 2 acyl side, 3 side chain; on linkers, the order of the positions; unused ones are H or OH. Bridge positions count the residues as written; N and C are the ends. Square brackets hold non-standard residues; d marks the D form. Peptide text beside a SMILES is read from it. I, II: the chains in the order shown. * marks the point of attachment. Actinocin(9to1) = Cc1c2oc3c(C)ccc(C(=O)[*:1])c3nc-2c(C(=O)[*:2])c(N)c1=O; DOTA = O=C(O)CN1CCN(CC(=O)O)CCN(CC(=O)*)CCN(CC(=O)O)CC1; NMeV = CN[C@H](C(=O)O)C(C)C; Sar = CNCC(=O)O
# Tests used:
# [1] = in vivo, cited from earlier work
# [2] = cited from earlier work
# [3] = system: T47D (Human) breast cancer cells; test: In vitro competitive cell binding assay, T47D; details: competitive binding vs. ^125I-Tyr^5-6-Ahx-Phe^19-STh or ^125I-Tyr^5-Phe^19-STh; read-out: In vitro IC50, Breast T47D (Human)
# Protocol: In Vitro Competitive Cell Binding Assay. The IC50 values of both metallated and non-metallated STh conjugates were determined in human cancer cells by a competitive displacement cell binding assay using ^125I-STh (^125I-Tyr^5-Phe^19-STh or ^125I-Tyr^5-6-Ahx-Phe^19-STh). […] After the incubation, the reaction medium was aspirated and cells were washed three times with media. The radioactivity bound to the cells was counted in a Packard Riastar gamma counting system. The ^125I-STh bound to cells was plotted vs. increasing concentrations of STh conjugate to determine the respective IC50 values (Table 3). For statistical considerations, three separate in vitro cell binding experiments with each conjugate were performed in duplicate.
# [4] = in vivo; cited from earlier work
# [5] = in vivo; cited from earlier work; remark: listed apart in the source
# [6] = oral radioactive lomustine, cited from earlier work
# [7] = cited from earlier work; remark: listed apart in the source
# [8] = in vivo; cited from earlier work; remark: listed apart in the source
# [9] = single oral doses of about 0.6 mg/kg to about […]
smiles,measurement,setting,value
"COc1cccc2c1C(=O)c1c(O)c3c(c(O)c1C2=O)C[C@@](O)(C(C)=O)C[C@@H]3O[C@H]1C[C@H](N)[C@H](O)[C@H](C)O1 [Daunorubicin, 5,12-Naphthacenedione, (8S-cis)-8-acetyl-10-[(3-amino-2,3,6-trideoxy-a-L-lyxo-hexanopyranosyl)oxy]-7,8,9,10-tetrahydro-6,8,11-trihydroxy-10-methoxy-, hydrochloride]",oral absorption,[1]; po,poor
same,half-life of elimination,[1],about 19 hours
"O=NN(CCCl)C(=O)NCCCl [Carmustine, 1,3 bis(2-chloroethyl)-1-nitrosourea]",solubility in alcohol and lipids,[2]; alcohol and lipids,highly soluble
same,solubility in water,[2],poorly soluble in water
"CC(C)C[C@@H]1NC(=O)[C@H](CCC(=O)O)NC(=O)[C@@H]2CSSC[C@@H]3NC(=O)[C@H](C)NC(=O)[C@@H]4CCCN4C(=O)[C@H](CC(N)=O)NC(=O)[C@H](CSSC[C@H](NC(=O)[C@H](Cc4ccc(O)cc4)NC(=O)[C@H](CC(N)=O)NC(=O)[C@H](CO)NC(=O)[C@H](CO)NC(=O)[C@H](CC(N)=O)NC(=O)CN4CCN(CC(=O)O)CCN(CC(=O)O)CCN(CC(=O)O)CC4)C(=O)N2)NC(=O)[C@H](CSSC[C@@H](C(=O)N[C@@H](Cc2ccccc2)C(=O)O)NC(=O)CNC(=O)[C@H]([C@@H](C)O)NC3=O)NC1=O [In-DOTA-Phe^19-STh] ({DOTA}-NSSNYCCELCCNPACTGCF-OH; disulfide 6-11, 7-15, 10-18)",IC50,[3],8.9 ± 2.2 nM
"COc1cccc2c1C(=O)c1c(O)c3c(c(O)c1C2=O)C[C@@](O)(C(=O)CO)C[C@@H]3O[C@H]1C[C@H](N)[C@H](O)[C@H](C)O1 [Doxorubicin, 5,12-Naphthacenedione, (8s-cis)-10-[(3-amino-2,3,6-trideoxy-a-L-lyxo-hexopyranosyl)oxy]-7,8,9,10-tetrahydro-6,8, 11-trihydroxy-8-(hydroxyacetyl)-1-methoxy-hydrochloride]",absorption,[4],absorbed poorly
same,elimination half-life,[4],about 30 hours
"Cc1c2oc3c(C)ccc(C(=O)N[C@@H]4C(=O)N[C@H](C(C)C)C(=O)N5CCC[C@H]5C(=O)N(C)CC(=O)N(C)[C@@H](C(C)C)C(=O)O[C@@H]4C)c3nc-2c(C(=O)N[C@@H]2C(=O)N[C@H](C(C)C)C(=O)N3CCC[C@H]3C(=O)N(C)CC(=O)N(C)[C@@H](C(C)C)C(=O)O[C@@H]2C)c(N)c1=O [Actinomycin D] (I: T[dV]P[Sar][NMeV] / II: T[dV]P[Sar][NMeV]; ester I:1-I:C, II:1-II:C; linker I:N-II:N via Actinocin(9to1))",dose excreted intact into the bile,[5],Half of the dose
same,dose excreted intact into the urine,[5],10%
same,half-life,[5],about 36 hours
same,passage of the blood-brain barrier,[5],does not pass the blood-brain barrier
"O=NN(CCCl)C(=O)NC1CCCCC1 [Lomustine, 1-(2-chloro-ethyl)-3-cyclohexyl-1 nitrosourea]",solubility in 10% ethanol,[2]; 10% ethanol,about 0.05 mg/mL
same,solubility in absolute alcohol,[2]; absolute alcohol,about 70 mg/mL
same,ionization at physiological pH,[2]; physiological pH,relatively unionized
same,solubility in water,[2],less than 0.05 mg/mL
same,radioactivity excreted in the form of degradation products within 24 hours,[6]; about 30 mg/m^2 to 100 mg/m^2,about half
same,serum half-life of the metabolites,[6],about 16 hours to about 2 days
COc1cccc2c1C(=O)c1c(O)c3c(c(O)c1C2=O)C[C@@](O)([C@H](C)O)C[C@@H]3O[C@H]1C[C@H](N)[C@H](O)[C@H](C)O1 [daunorubicinol],half-life of active metabolite,[1],about 27 hours
"O=C(O)CCCc1ccc(N(CCCl)CCCl)cc1 [Chlorambucil, 4-[bis(2-chlorethyl)amino] benzenebutanoic acid]",absorption from the gastrointestinal tract,"[7]; oral, tablet",rapidly and completely absorbed
same,terminal half-life of the parent drug,[7]; [9],about 1.5 hours
same,time to peak plasma chlorambucil levels,[7]; [9],within one hour
CC[C@]1(O)C[C@H]2CN(CCc3c([nH]c4ccccc34)[C@@](C(=O)OC)(c3cc4c(cc3OC)N(C=O)[C@H]3[C@@](O)(C(=O)OC)[C@H](OC(C)=O)[C@]5(CC)C=CCN6CC[C@]43[C@@H]65)C2)C1 [vincristine],terminal half-life (plasma),[8],about 24 hours
